{
  "source": "patent US20240358767A1",
  "about": "“STEM CELL DIFFERENTIATION AND CHEMICAL COMPOUNDS” (VERTEX PHARMACEUTICALS INCORPORATED, priority 2021, published 2024)",
  "data": [
    {"tested_on": "Stem cells", "assay": "not given", "details": "not given", "values": [
      {"compound": "Cc1nc2c(-c3cnc(N)nc3)nc(N3CCOCC3)nc2n1C(C)C", "note": "[VS-5584]", "nuclear blebbing in the resulting cell population": "not to induce"},
      {"compound": "O=C(Nc1cccc2cccnc12)c1ccc(N2C(=O)[C@@H]3[C@H](C2=O)[C@@H]2C=C[C@H]3C2)cc1", "note": "[IWR-1-endo]", "nuclear blebbing in the resulting cell population": "not to induce"}
    ]},
    {"tested_on": "Stem cells", "assay": "384-well screen of small molecule compounds for Stage 1 differentiation to Sox17-positive definitive endoderm cells (immunostaining, DAPI)", "details": "10 ng/mL AA plus test compound, about 8 concentrations; dose-responsive manner", "values": [
      {"compound": "Nc1ccc(C(=O)Nc2cccc(-c3nc(N4CCOCC4)c4oc5ncccc5c4n3)c2)cn1", "note": "[YM201636]", "signal in Oct 4 channel": "decrease", "signal in Sox17 channel": "increase"},
      {"compound": "COc1ccc(-c2ccc3c(N4CCOC[C@@H]4C)nc(N4CCOC[C@@H]4C)nc3n2)cc1CO", "note": "[AZD8055]", "signal in Oct 4 channel": "decrease", "signal in Sox17 channel": "increase"},
      {"compound": "COc1ncc(-c2ccc3nccc(-c4ccnnc4)c3c2)cc1NS(=O)(=O)c1ccc(F)cc1F", "note": "[Omipalisib]", "signal in Oct 4 channel": "decrease", "signal in Sox17 channel": "increase"},
      {"compound": "COc1ccc(-c2sc(NC(=O)C(C)(C)C)nc2C)cc1S(=O)(=O)Nc1ccc(O)cc1", "note": "[PI4KIIIbeta-IN-10]", "signal in Oct 4 channel": "decrease", "signal in Sox17 channel": "increase"},
      {"compound": "CC(C)n1c([C@H](C)Nc2ncnc(N)c2C#N)cc2cccc(-c3ccc(=O)n(C)c3)c2c1=O", "note": "[IPI-3063]", "signal in Oct 4 channel": "decrease", "signal in Sox17 channel": "increase"},
      {"compound": "CC(C)N1CCN(Cc2cnc(-c3cc(-c4cccc5[nH]ccc45)cc4[nH]ncc34)o2)CC1", "note": "[Nemiralisib]", "signal in Oct 4 channel": "decrease", "signal in Sox17 channel": "increase"},
      {"compound": "O=C(Nc1cccc2cccnc12)c1ccc(N2C(=O)[C@@H]3[C@H](C2=O)[C@@H]2C=C[C@H]3C2)cc1", "note": "[IWR-1-endo]", "signal in Oct 4 channel": "decrease", "signal in Sox17 channel": "increase"},
      {"compound": "Nc1nc(-c2nn(Cc3ccccc3F)c3ncccc23)ncc1C1CC1", "note": "[BAY 41-2272]", "signal in Oct 4 channel": "decrease", "signal in Sox17 channel": "increase"},
      {"compound": "CCN1CCN(Cc2ccc(C(=O)Nc3ccc(C)c(Oc4ccc5c(c4)CC(=O)N5)c3)cc2C(F)(F)F)CC1", "note": "[DDR1-IN-1]", "signal in Oct 4 channel": "decrease", "signal in Sox17 channel": "increase"},
      {"compound": "Cc1c(CN2CCN(S(C)(=O)=O)CC2)sc2c(N3CCOCC3)nc(-c3cnc(N)nc3)nc12", "note": "[GNE-477]", "signal in Oct 4 channel": "decrease", "signal in Sox17 channel": "increase"}
    ]},
    {"tested_on": "Stem cells", "assay": "384-well screen of small molecule compounds for Stage 1 differentiation to Sox17-positive definitive endoderm cells (immunostaining, DAPI)", "details": "Stage 1 condition with 10 ng/mL AA and the test compound; 384-well plates", "units": {"Relative to 100 ng/mL AA (percentage of Sox17-positive cells normalized by the percentage with 100 ng/mL AA)": "%"}, "values": [
      {"compound": "COc1ccc(-c2ccc3c(N4CCOC[C@@H]4C)nc(N4CCOC[C@@H]4C)nc3n2)cc1CO", "note": "[AZD8055]", "Relative to 100 ng/mL AA (percentage of Sox17-positive cells normalized by the percentage with 100 ng/mL AA)": 117},
      {"compound": "COc1ncc(-c2ccc3nccc(-c4ccnnc4)c3c2)cc1NS(=O)(=O)c1ccc(F)cc1F", "note": "[Omipalisib]", "Relative to 100 ng/mL AA (percentage of Sox17-positive cells normalized by the percentage with 100 ng/mL AA)": 75},
      {"compound": "O=C(c1ccc(-c2nc3ccc(F)cc3o2)cc1)N1CCN(C(=O)C2(O)CC2)CC1", "note": "[FT113]", "Relative to 100 ng/mL AA (percentage of Sox17-positive cells normalized by the percentage with 100 ng/mL AA)": 64},
      {"compound": "CC(C)n1c([C@H](C)Nc2ncnc(N)c2C#N)cc2cccc(-c3ccc(=O)n(C)c3)c2c1=O", "note": "[IPI-3063]", "Relative to 100 ng/mL AA (percentage of Sox17-positive cells normalized by the percentage with 100 ng/mL AA)": 130},
      {"compound": "Cc1c(CN2CCN(C(=O)[C@H](C)O)CC2)sc2c(N3CCOCC3)nc(-c3cnc(N)nc3)nc12", "note": "[Apitolisib]", "Relative to 100 ng/mL AA (percentage of Sox17-positive cells normalized by the percentage with 100 ng/mL AA)": 168},
      {"compound": "Nc1nc(-c2nn(Cc3ccccc3F)c3ncccc23)ncc1C1CC1", "note": "[BAY 41-2272]", "Relative to 100 ng/mL AA (percentage of Sox17-positive cells normalized by the percentage with 100 ng/mL AA)": 145},
      {"compound": "CCN1CCN(Cc2ccc(C(=O)Nc3ccc(C)c(Oc4ccc5c(c4)CC(=O)N5)c3)cc2C(F)(F)F)CC1", "note": "[DDR1-IN-1]", "Relative to 100 ng/mL AA (percentage of Sox17-positive cells normalized by the percentage with 100 ng/mL AA)": 120},
      {"compound": "Cc1c(CN2CCN(S(C)(=O)=O)CC2)sc2c(N3CCOCC3)nc(-c3cnc(N)nc3)nc12", "note": "[GNE-477]", "Relative to 100 ng/mL AA (percentage of Sox17-positive cells normalized by the percentage with 100 ng/mL AA)": 160}
    ]},
    {"tested_on": "Stem cells", "assay": "384-well screen of small molecule compounds for Stage 1 differentiation to Sox17-positive definitive endoderm cells (immunostaining, DAPI)", "details": "visual inspection", "values": [
      {"compound": "COc1ccc(-c2ccc3c(N4CCOC[C@@H]4C)nc(N4CCOC[C@@H]4C)nc3n2)cc1CO", "note": "[AZD8055]", "nuclear blebbing in the resulting cell population": "not to induce"},
      {"compound": "COc1ncc(-c2ccc3nccc(-c4ccnnc4)c3c2)cc1NS(=O)(=O)c1ccc(F)cc1F", "note": "[Omipalisib]", "nuclear blebbing in the resulting cell population": "not to induce"},
      {"compound": "COc1ccc(-c2sc(NC(=O)C(C)(C)C)nc2C)cc1S(=O)(=O)Nc1ccc(O)cc1", "note": "[PI4KIIIbeta-IN-10]", "nuclear blebbing in the resulting cell population": "not to induce"},
      {"compound": "CC(C)n1c([C@H](C)Nc2ncnc(N)c2C#N)cc2cccc(-c3ccc(=O)n(C)c3)c2c1=O", "note": "[IPI-3063]", "nuclear blebbing in the resulting cell population": "not to induce"},
      {"compound": "CC(C)N1CCN(Cc2cnc(-c3cc(-c4cccc5[nH]ccc45)cc4[nH]ncc34)o2)CC1", "note": "[Nemiralisib]", "nuclear blebbing in the resulting cell population": "not to induce"},
      {"compound": "Nc1nc(-c2nn(Cc3ccccc3F)c3ncccc23)ncc1C1CC1", "note": "[BAY 41-2272]", "nuclear blebbing in the resulting cell population": "not to induce"},
      {"compound": "CCN1CCN(Cc2ccc(C(=O)Nc3ccc(C)c(Oc4ccc5c(c4)CC(=O)N5)c3)cc2C(F)(F)F)CC1", "note": "[DDR1-IN-1]", "nuclear blebbing in the resulting cell population": "not to induce"},
      {"compound": "Cc1c(CN2CCN(S(C)(=O)=O)CC2)sc2c(N3CCOCC3)nc(-c3cnc(N)nc3)nc12", "note": "[GNE-477]", "nuclear blebbing in the resulting cell population": "not to induce"}
    ]},
    {"biological_target": "EZH2 (Homo sapiens, UniProt Q15910)", "sequence (Q15910 whole entry, species assumed)": "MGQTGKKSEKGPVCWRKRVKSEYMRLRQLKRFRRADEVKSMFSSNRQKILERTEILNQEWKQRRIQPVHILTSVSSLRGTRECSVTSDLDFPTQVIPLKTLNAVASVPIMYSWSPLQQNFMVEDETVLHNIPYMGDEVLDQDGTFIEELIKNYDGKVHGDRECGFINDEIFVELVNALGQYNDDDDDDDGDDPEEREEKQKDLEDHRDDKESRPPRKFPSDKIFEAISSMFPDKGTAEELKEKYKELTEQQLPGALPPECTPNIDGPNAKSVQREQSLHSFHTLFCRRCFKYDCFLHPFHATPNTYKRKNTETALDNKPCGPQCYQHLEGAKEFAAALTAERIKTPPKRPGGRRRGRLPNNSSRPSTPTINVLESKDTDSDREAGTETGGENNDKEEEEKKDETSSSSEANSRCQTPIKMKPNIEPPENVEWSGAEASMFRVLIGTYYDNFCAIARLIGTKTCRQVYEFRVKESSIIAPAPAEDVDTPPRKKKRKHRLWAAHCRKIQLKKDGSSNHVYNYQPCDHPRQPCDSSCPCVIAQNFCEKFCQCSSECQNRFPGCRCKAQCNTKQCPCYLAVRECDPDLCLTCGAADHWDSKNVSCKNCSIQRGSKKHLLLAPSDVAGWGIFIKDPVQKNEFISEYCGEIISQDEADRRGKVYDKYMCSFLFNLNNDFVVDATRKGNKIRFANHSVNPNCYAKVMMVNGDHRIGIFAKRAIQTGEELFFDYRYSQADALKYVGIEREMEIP", "sequence (O75530 whole entry partner, species assumed)": "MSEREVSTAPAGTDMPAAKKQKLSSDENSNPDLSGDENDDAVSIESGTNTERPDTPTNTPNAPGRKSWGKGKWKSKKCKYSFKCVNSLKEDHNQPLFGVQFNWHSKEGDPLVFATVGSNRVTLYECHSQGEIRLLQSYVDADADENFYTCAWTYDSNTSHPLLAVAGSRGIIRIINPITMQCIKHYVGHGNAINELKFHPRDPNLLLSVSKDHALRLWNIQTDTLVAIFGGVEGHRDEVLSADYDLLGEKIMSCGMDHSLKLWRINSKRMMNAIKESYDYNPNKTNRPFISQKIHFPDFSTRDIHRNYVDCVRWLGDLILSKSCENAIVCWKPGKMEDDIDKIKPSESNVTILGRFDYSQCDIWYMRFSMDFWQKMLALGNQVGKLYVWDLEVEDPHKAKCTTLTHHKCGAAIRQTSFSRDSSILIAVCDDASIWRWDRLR", "sequence (Q15022 whole entry partner, species assumed)": "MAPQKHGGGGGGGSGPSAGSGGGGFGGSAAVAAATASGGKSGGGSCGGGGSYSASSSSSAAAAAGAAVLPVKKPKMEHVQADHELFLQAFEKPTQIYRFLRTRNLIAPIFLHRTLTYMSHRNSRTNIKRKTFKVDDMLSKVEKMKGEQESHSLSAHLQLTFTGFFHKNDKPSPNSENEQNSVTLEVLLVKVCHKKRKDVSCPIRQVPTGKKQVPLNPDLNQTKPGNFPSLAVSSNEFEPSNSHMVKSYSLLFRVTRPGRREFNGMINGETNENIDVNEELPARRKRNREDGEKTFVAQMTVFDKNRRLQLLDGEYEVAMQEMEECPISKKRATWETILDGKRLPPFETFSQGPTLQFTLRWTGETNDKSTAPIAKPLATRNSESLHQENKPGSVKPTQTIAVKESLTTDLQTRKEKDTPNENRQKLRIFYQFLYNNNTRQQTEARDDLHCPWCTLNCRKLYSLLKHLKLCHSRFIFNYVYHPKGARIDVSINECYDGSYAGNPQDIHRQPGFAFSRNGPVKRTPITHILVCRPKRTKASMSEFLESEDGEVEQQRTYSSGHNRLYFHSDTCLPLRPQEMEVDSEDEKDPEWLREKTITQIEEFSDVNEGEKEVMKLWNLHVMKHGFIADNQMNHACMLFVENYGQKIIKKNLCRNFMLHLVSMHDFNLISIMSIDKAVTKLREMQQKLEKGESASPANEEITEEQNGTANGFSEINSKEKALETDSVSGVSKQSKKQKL", "assay": "not given", "details": "EZH2 vs EZH1; cited from earlier work", "units": {"selectivity over EZH1": "fold"}, "values": [
      {"compound": "CC[C@H](C)n1cc(C)c2c(C(=O)NCc3c(C)cc(C)[nH]c3=O)cc(-c3ccc(N4CCNCC4)nc3)cc21", "note": "[GSK126]", "selectivity over EZH1": 150}
    ]},
    {"biological_target": "EZH2 (Homo sapiens, UniProt Q15910)", "assay": "not given", "details": "cited from earlier work", "values": [
      {"compound": "CCCc1cc(C)[nH]c(=O)c1CNC(=O)c1cc(-c2ccc(N3CCN(C(C)C)CC3)nc2)cc2c1cnn2C(C)C", "note": "[UNC1999]", "selectivity compared with GSK126": "less selective"}
    ]}
  ]
}
